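How tested: cells in 96-well plates exposed to compound for 48 hours at five concentrations. GI50: concentration for 50% inhibition of growth. TGI: total growth inhibition.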
Assays:
Assay in all cases: NCI tumour cell line growth inhibition, 48 h
[1] = tested on: MDA-MB-231 breast
[2] = tested on: UACC-62 melanoma
[3] = tested on: SK-MEL-2 melanoma
[4] = tested on: OVCAR-8 ovarian
[5] = tested on: RXF 393 renal
[6] = tested on: CCRF-CEM leukemia
[7] = tested on: SNB-19 CNS
[8] = tested on: ACHN renal
[9] = tested on: SK-MEL-5 melanoma
[10] = tested on: K-562 leukemia
[11] = tested on: SN12C renal
[12] = tested on: TK-10 renal
[13] = tested on: MOLT-4 leukemia
[14] = tested on: UACC-257 melanoma
[15] = tested on: NCI-H23 lung
[16] = tested on: SW-620 colon
[17] = tested on: COLO 205 colon
[18] = tested on: BT-549 breast
[19] = tested on: OVCAR-4 ovarian
[20] = tested on: U251 CNS
[21] = tested on: CAKI-1 renal
[22] = tested on: HCT-116 colon
[23] = tested on: SF-295 CNS
[24] = tested on: UO-31 renal
[25] = tested on: OVCAR-3 ovarian
[26] = tested on: NCI-H460 lung
[27] = tested on: SK-OV-3 ovarian
[28] = tested on: M14 melanoma
[29] = tested on: SK-MEL-28 melanoma
[30] = tested on: HL-60(TB) leukemia
[31] = tested on: NCI-H522 lung
[32] = tested on: DU-145 prostate
[33] = tested on: NCI/ADR-RES ovarian
[34] = tested on: SF-268 CNS
[35] = tested on: KM12 colon
[36] = tested on: 786-0 renal
[37] = tested on: NCI-H226 lung
[38] = tested on: A549 NSCLC
[39] = tested on: MCF7 breast
[40] = tested on: OVCAR-5 ovarian
[41] = tested on: SR leukemia
[42] = tested on: HOP-92 NSCLC
[43] = tested on: IGROV1 ovarian
[44] = tested on: HCT-15 colon
[45] = tested on: SF-539 CNS
[46] = tested on: HOP-62 NSCLC
[47] = tested on: HS 578T breast
[48] = tested on: SNB-75 CNS
[49] = tested on: T-47D breast
[50] = tested on: HCC-2998 colon
[51] = tested on: PC-3 prostate
[52] = tested on: MDA-MB-435
[53] = tested on: A498 renal
[54] = tested on: EKVX NSCLC
[55] = tested on: MALME-3M melanoma
[56] = tested on: HT29 colon
[57] = tested on: LOX IMVI melanoma

Which results are given for `O=C(Nc1ccc(Cl)cc1)Nc1nc2ccc([N+](=O)[O-])cc2s1`?
GI50 [1]: 1120 nM; TGI [1]: 2920 nM; GI50 [2]: 485 nM; TGI [2]: 2140 nM; GI50 [3]: 554 nM; TGI [3]: 2320 nM; GI50 [4]: 1270 nM; TGI [4]: 4700 nM; GI50 [5]: 587 nM; TGI [5]: 1940 nM; GI50 [6]: 393 nM; TGI [6]: 1850 nM; GI50 [7]: 735 nM; TGI [7]: 2750 nM; GI50 [8]: 751 nM; TGI [8]: 2290 nM; GI50 [9]: 365 nM; TGI [9]: 1330 nM; GI50 [10]: 375 nM; TGI [10]: 1550 nM; GI50 [11]: 647 nM; TGI [11]: 2590 nM; GI50 [12]: 889 nM; TGI [12]: 4320 nM; GI50 [13]: 438 nM; TGI [13]: 1980 nM; GI50 [14]: 639 nM; TGI [14]: 2790 nM; GI50 [15]: 332 nM; TGI [15]: 1260 nM; GI50 [16]: 840 nM; TGI [16]: 2340 nM; GI50 [17]: 1700 nM; TGI [17]: 3290 nM; GI50 [18]: 593 nM; TGI [18]: 1760 nM; GI50 [19]: 573 nM; TGI [19]: 3130 nM; GI50 [20]: 606 nM; TGI [20]: 2570 nM; GI50 [21]: 653 nM; TGI [21]: 2510 nM; GI50 [22]: 346 nM; TGI [22]: 1270 nM; GI50 [23]: 728 nM; TGI [23]: 2120 nM; GI50 [24]: 545 nM; TGI [24]: 2450 nM; GI50 [25]: 435 nM; TGI [25]: 1590 nM; GI50 [26]: 468 nM; TGI [26]: 1700 nM; GI50 [27]: 843 nM; TGI [27]: 4510 nM; GI50 [28]: 815 nM; TGI [28]: 2240 nM; GI50 [29]: 663 nM; TGI [29]: 2020 nM; GI50 [30]: 604 nM; TGI [30]: 2020 nM; GI50 [31]: 378 nM; TGI [31]: 2890 nM; GI50 [32]: 1110 nM; TGI [32]: 5150 nM; GI50 [33]: 880 nM; TGI [33]: 2280 nM; GI50 [34]: 1090 nM; TGI [34]: 3460 nM; GI50 [35]: 642 nM; TGI [35]: 2310 nM; GI50 [36]: 776 nM; TGI [36]: 2390 nM; GI50 [37]: 777 nM; TGI [37]: 2460 nM; GI50 [38]: 837 nM; TGI [38]: 3430 nM; GI50 [39]: 460 nM; TGI [39]: 1910 nM; GI50 [40]: 1850 nM; TGI [40]: 4450 nM; GI50 [41]: 566 nM; TGI [41]: 2280 nM; GI50 [42]: 187 nM; TGI [42]: 628 nM; GI50 [43]: 1080 nM; TGI [43]: 2680 nM; GI50 [44]: 675 nM; TGI [44]: 2110 nM; GI50 [45]: 915 nM; TGI [45]: 2350 nM; GI50 [46]: 1190 nM; TGI [46]: 3130 nM; GI50 [47]: 1170 nM; TGI [47]: 3870 nM; GI50 [48]: 952 nM; TGI [48]: 3510 nM; GI50 [49]: 308 nM; TGI [49]: 1280 nM; GI50 [50]: 590 nM; TGI [50]: 2080 nM; GI50 [51]: 380 nM; TGI [51]: 1630 nM; GI50 [52]: 729 nM; TGI [52]: 2200 nM; GI50 [53]: 275 nM; TGI [53]: 996 nM; GI50 [54]: 886 nM; TGI [54]: 2660 nM; GI50 [55]: 467 nM; TGI [55]: 1870 nM; GI50 [56]: 2570 nM; TGI [56]: 7140 nM; GI50 [57]: 727 nM; TGI [57]: 2060 nM

From PubChem BioAssay (NCI)
